For 3 compounds, EC50 results are on record in patent US20150344457A1, “METHODS OF INHIBITING PRMT5” (EPIZYME, INC., priority 2012, published 2015).

Broadly, the EC50 is the concentration that produces a half-maximal response.

Structures are written as SMILES.

The assay concerns Z-138 cells. Briefly: Z-138 Methylation Assay (In Cell Western for symmetric di-methyl arginine and DNA content). It counts as cell-based. The following applies: Homo sapiens, Table D-2, read-out: ICW EC50. The essentials:
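Z-138 cells at 50,000 cells/mL exposed to compound 96 h at 37 °C, then attached to poly-D-lysine plates, fixed with paraformaldehyde and probed with anti-symmetric di-methyl arginine plus DRAQ5 DNA stain. 800/700 nm ratio normalized to DMSO and 3 μM reference controls; IC50 from triplicate wells.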
For `N#Cc1ccccc1-c1cccc(OCC(O)CN2CCc3ccccc3C2)c1` (stereo not drawn) [Compound D93], the EC50 is 1 to 10 µM.
As for `N#Cc1ccc(-c2cccc(OCC(O)CN3CCc4ccccc4C3)c2)cc1` (stereo not drawn) [Compound D94], the EC50 was 1 to 10 µM.
Consider `Oc1cccc(-c2cccc(OCC(O)CN3CCc4ccccc4C3)c2)c1` (stereo not drawn) [Compound D95], for which the EC50 was 1 to 10 µM.
